pIC50: −log10 of the molar value. Like-named read-outs stand apart in the source and are kept apart here. One block for each compound: values may come before it.
Columns and labels:
Assay in all cases: MTT cell viability assay
Assay type in all cases: cell-based
LCLC-103H = settings: Homo sapiens, 48 h
Method: (§1) Distinct MTT cell viability and crystal violet cell proliferation assays were performed to assess the cytotoxicity of the compounds 1–6 on 14 human cancer cell lines. In the viability assay, cells with intact mitochondria and thus active dehydrogenases are competent to convert MTT to the corresponding insoluble formazan. The formazan can be photometrically detected after solubilization and allows for indirect conclusions about the viability of the cells as an IC50 value. In the crystal violet assay, cells are stained by the binding of the dye to the chromatin, thus allowing for a quantification of biomass that remains adherent after a treatment in comparison with a control after a specific time. Potency is defined as the growth inhibitory concentration 50% (GI50).
(§2) In addition to performing the cell viability assay under normoxia (19% atmospheric oxygen), incubations were also conducted under hypoxic conditions, i.e., atmospheric oxygen levels of 1% during the treatment for 48 h. Hypoxia is a favorable condition of the tumor microenvironment that is connected with poor outcome. Therefore, the low oxygen condition mimics better the tumor environment. The biological effect of the pentathiepins under this condition provides insight into their dependency for oxygen, which has been postulated a key component in the proposed mechanism of action (Figure 3). Consistent with the proposed mechanism of action for five of the compounds, potency decreased under hypoxic conditions; in fact for 6, the half-maximal inhibitory concentration exceeded the highest tested concentration of 10 µM in four cell lines (Figure 6, Table S3). […] In contrast to the other compounds, in some cell lines, the cytotoxic effects of 1 were more pronounced under oxygen-reduced incubation conditions (Figure 6), indicating a tangential role of oxygen availability for this pentathiepin. Especially for the breast cancer cell line MCF-7, the cytotoxicity increased substantially, indicated by a decrease of the IC50 from >10.0 µM to about 1.0 µM.
(§3) The effect of the pentathiepins on the viability of the cell lines was assessed via an MTT assay, performed as previously described. Healthy and viable cells convert the yellow soluble 3-(4,5-dimethylthiazol-2-yl)-2,5-diphenyltetrazolium bromide to the insoluble purple corresponding formazan, which can be spectrophotometrically measured. For this assay, 5000 cells (1 250 for LCLC-103H) in 0.1 mL of medium were seeded per well of a 96-well plate and incubated at standard conditions for 24 h prior to treatment. A serial dilution of the test compounds was prepared in medium, covering final concentrations from 10.0 to 0.04 µM, and 0.1 mL of the working solution was added to each well in triplicate. After 48 h, 20 µL of a 2.5 mg/mL MTT in PBS solution was pipetted into each well and further incubated for 4 h at standard conditions. Thereafter, medium was replaced with 50 µL DMSO, and the plates were put on a shaker for 5 min and subsequently read at λ = 570 nm, with a SpectraMax 384plus (Molecular Devices, Sunnyvale, CA, USA). The cell viabilities of the treatment conditions were calculated in relation to a solvent control sample. The absolute IC50 was calculated via nonlinear regression followed by interpolation of the dose–response graphs in Prism 7 (GraphPad, San Diego, CA, USA). The IC90 was derived from the IC50 by using the slope factor of the dose–response graph with the tool QuickCalcs from GraphPad (GraphPad Software, San Diego, CA, USA).

Kyse-70 = settings: Homo sapiens, 48 h
Method: as §1, §2, §3

YAPC = settings: Homo sapiens; for pIC50: 48 h; for IC90: calculated via GraphPad QuickCalcs from MTT IC50 and slope factor
Method: as §1, §2, §3

RT-4 = settings: Homo sapiens, 48 h
Method: as §1, §2, §3

HAP-1 = settings: Homo sapiens; for pIC50: HAP1, 48 h; for IC90: HAP1, calculated via GraphPad QuickCalcs from MTT IC50 and slope factor
Method: as §1, §2, §3

DanG = settings: Homo sapiens; for pIC50: 48 h; for IC90: calculated via GraphPad QuickCalcs from MTT IC50 and slope factor
Method: as §1, §2, §3

PATU-8902 = settings: Homo sapiens; for pIC50: 48 h; for IC90: calculated via GraphPad QuickCalcs from MTT IC50 and slope factor
Method: as §1, §2, §3

A2780cis = settings: Homo sapiens, 48 h
Method: as §1, §2, §3

A-427 = settings: Homo sapiens, 48 h
Method: as §1, §2, §3

A2780 = settings: Homo sapiens; for pIC50: 48 h; for IC90: calculated via GraphPad QuickCalcs from MTT IC50 and slope factor
Method: as §1, §2, §3

RT-112 = settings: Homo sapiens, 48 h
Method: as §1, §2, §3

HAP-1.KO.GPx1 = settings: Homo sapiens; for pIC50: 48 h; for IC90: calculated via GraphPad QuickCalcs from MTT IC50 and slope factor
Method: as §1, §2, §3

Siso = settings: Homo sapiens; for pIC50: 48 h; for IC90: calculated via GraphPad QuickCalcs from MTT IC50 and slope factor
Method: as §1, §2, §3

[1] = hypoxic (1% O2), read-out: IC50 MTT-H mean
[2] = normoxic (19% O2), read-out: IC50 MTT-N mean

pIC50 (A2780cis; [1]): 6.35 | pIC50 (A2780cis; [2]): 6.51 | pIC50 (A2780; [1]): 6.23 | pIC50 (A2780; [2]): 6.59 | IC90 (A2780): 510 nM
SMILES: CCOc1c2c(c3ccc(C(=O)N4CCN(C(=O)c5ccc(F)cc5)CC4)cn13)SSSSS2 [Compound 5, (6-Ethoxy-[1,2,3,4,5]pentathiepino[6,7-a]indolizin-9-yl)(4-(4-fluorobenzoyl)piperazinyl)methanone]
pIC50 (LCLC-103H; [1]): 6.17 | pIC50 (LCLC-103H; [2]): 6.10 | pIC50 (Kyse-70; [1]): 5.82 | pIC50 (Kyse-70; [2]): 6.08 | pIC50 (YAPC; [1]): 5.82 | pIC50 (YAPC; [2]): 5.87 | IC90 (YAPC): 2200 nM | pIC50 (RT-4; [1]): 5.76 | pIC50 (RT-4; [2]): 6.15 | pIC50 (HAP-1; [1]): 6.18 | pIC50 (HAP-1; [2]): 6.57 | IC90 (HAP-1): 490 nM | pIC50 (DanG; [1]): 5.79 | pIC50 (DanG; [2]): 5.93 | IC90 (DanG): 2050 nM | pIC50 (PATU-8902; [1]): 5.81 | pIC50 (PATU-8902; [2]): 5.92 | IC90 (PATU-8902): 2570 nM | pIC50 (A-427; [1]): 6.08 | pIC50 (A-427; [2]): 6.04 | pIC50 (RT-112; [1]): 5.95 | pIC50 (RT-112; [2]): 5.97 | pIC50 (HAP-1.KO.GPx1; [1]): 6.04 | pIC50 (HAP-1.KO.GPx1; [2]): 6.38 | IC90 (HAP-1.KO.GPx1): 720 nM | pIC50 (Siso; [1]): 5.73 | pIC50 (Siso; [2]): 6.10 | IC90 (Siso): 1470 nM

pIC50 (A2780cis; [1]): 6.50 | pIC50 (A2780cis; [2]): 6.69 | pIC50 (A2780; [1]): 6.21 | pIC50 (A2780; [2]): 6.87 | IC90 (A2780): 360 nM
SMILES: CCOc1c2c(c3ccc(C(=O)N4CCOCC4)cn13)SSSSS2 [Compound 3, (6-Ethoxy-[1,2,3,4,5]pentathiepino[6,7-a]indolizin-9-yl)(morpholino)methanone]
pIC50 (LCLC-103H; [1]): 6.09 | pIC50 (LCLC-103H; [2]): 6.24 | pIC50 (Kyse-70; [1]): 5.64 | pIC50 (Kyse-70; [2]): 6.08 | pIC50 (YAPC; [1]): 5.63 | pIC50 (YAPC; [2]): 5.91 | IC90 (YAPC): 2240 nM | pIC50 (RT-4; [1]): 5.64 | pIC50 (RT-4; [2]): 6.06 | pIC50 (HAP-1; [1]): 6.18 | pIC50 (HAP-1; [2]): 6.58 | IC90 (HAP-1): 620 nM | pIC50 (DanG; [1]): 5.58 | pIC50 (DanG; [2]): 5.84 | IC90 (DanG): 2540 nM | pIC50 (PATU-8902; [1]): 5.63 | pIC50 (PATU-8902; [2]): 5.98 | IC90 (PATU-8902): 2480 nM | pIC50 (A-427; [1]): 6.02 | pIC50 (A-427; [2]): 6.11 | pIC50 (RT-112; [1]): 5.83 | pIC50 (RT-112; [2]): 5.98 | pIC50 (HAP-1.KO.GPx1; [1]): 6.04 | pIC50 (HAP-1.KO.GPx1; [2]): 6.43 | IC90 (HAP-1.KO.GPx1): 800 nM | pIC50 (Siso; [1]): 5.56 | pIC50 (Siso; [2]): 6.24 | IC90 (Siso): 1230 nM

pIC50 (A2780cis; [1]): 6.39 | pIC50 (A2780cis; [2]): 6.39 | pIC50 (A2780; [1]): 6.35 | pIC50 (A2780; [2]): 6.16 | IC90 (A2780): 1870 nM
SMILES: CCOc1c2c(c3cnc4[nH]c(-c5ccc(OC)cc5)cc4n13)SSSSS2 [Compound 1, 11-Ethoxy-2-(4-methoxyphenyl)-3H-[1,2,3,4,5]pentathiepino[6′,7′:3,4]pyrrolo[1,2-a]pyrrolo[2,3-e]pyrazine]
pIC50 (LCLC-103H; [1]): 6.26 | pIC50 (LCLC-103H; [2]): 5.85 | pIC50 (Kyse-70; [1]): 6.27 | pIC50 (Kyse-70; [2]): 6.32 | pIC50 (YAPC; [1]): 6.44 | pIC50 (YAPC; [2]): 6.11 | IC90 (YAPC): 2470 nM | pIC50 (RT-4; [1]): 6.28 | pIC50 (RT-4; [2]): 5.72 | pIC50 (HAP-1; [1]): 6.42 | pIC50 (HAP-1; [2]): 6.40 | IC90 (HAP-1): 710 nM | pIC50 (DanG; [1]): 6.32 | pIC50 (DanG; [2]): 5.95 | IC90 (DanG): 1710 nM | pIC50 (PATU-8902; [1]): 6.27 | pIC50 (PATU-8902; [2]): 6.24 | IC90 (PATU-8902): 1220 nM | pIC50 (A-427; [1]): 6.55 | pIC50 (A-427; [2]): 6.46 | pIC50 (RT-112; [1]): 6.51 | pIC50 (RT-112; [2]): 6.40 | pIC50 (HAP-1.KO.GPx1; [1]): 6.37 | pIC50 (HAP-1.KO.GPx1; [2]): 6.45 | IC90 (HAP-1.KO.GPx1): 550 nM | pIC50 (Siso; [1]): 6.22 | pIC50 (Siso; [2]): 6.38 | IC90 (Siso): 770 nM
